This assay has as its system adult female mice (uterus, vagina). As to the kind of experiment: Estrogen responsiveness bioassay in adult females (uterine wet weight, hyperemia, vaginal epithelial cytology). The class given is in vivo, mouse. Particulars: for vaginal histology: after estradiol treatment; for increase in uterine wet weight: treated for three days, compared to untreated control.

Molecules are shown by their SMILES.

Turning to `C[C@]12CC[C@@H]3c4ccc(O)cc4CC[C@H]3[C@@H]1CC[C@@H]2O` [estradiol], the vaginal histology entry by setting is: (ER disrupted animals) “unaltered”; (wild type and heterozygous animals) “increase in number of cornified epithelial cells”. In addition, for the setting “ER disrupted animals, treatment for 4-6 hours”, the “uterine water imbibition or uterine hyperemia” value is given as “no uterine water imbibition or uterine hyperemia”. Besides, the “increase in uterine wet weight” value is given as 3-4 fold (heterozygous animals) and 3-4 fold (wild type animals). The “increase in uterine weight or hyperemia” value (homozygous ER disrupted animals, three day bioassay) is “did not respond”. Besides, the uterine hyperemia result (wild type and heterozygotes, three day bioassay) is recorded as “became hyperemic”.
